Values joined by “and” are separate entries in the source; they are usually repeats but may differ in a detail not shown here. Identical values can stand only once. Inconclusive results and toxic doses are left out.
Test system: P388 leukemia ip, CD2F1 mice, survival T/C
Assay: NCI In Vivo Anticancer Drug Screen. Data for tumor model P388 Leukemia (intraperitoneal) in CD2F1 (CDF1) mice
Conditions: endpoint: median survival time, higher = longer survival
Method in brief: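 Mice carrying the transplanted tumor received test compound or vehicle. Survival was recorded in each group, and the value is the treated-group measurement divided by that of the vehicle-treated control group.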

[1] = dose: 50.0 mg/kg/injection, schedule: Q01DX009 (ip), vehicle: Klucel (hydroxypropylcellulose) (HPC)
[2] = dose: 100.0 mg/kg/injection, schedule: Q01DX009 (ip), vehicle: Klucel (hydroxypropylcellulose) (HPC)
[3] = dose: 50.0 mg/kg/injection, schedule: Q01DX005 (ip), vehicle: Klucel (hydroxypropylcellulose) (HPC)
[4] = dose: 100.0 mg/kg/injection, schedule: Q01DX005 (ip), vehicle: Klucel (hydroxypropylcellulose) (HPC)
[5] = dose: 200.0 mg/kg/injection, schedule: Q01DX005 (ip), vehicle: Klucel (hydroxypropylcellulose) (HPC)
[6] = dose: 100.0 mg/kg/injection, schedule: Q01DX009 (ip), vehicle: saline with Tween-80
[7] = dose: 200.0 mg/kg/injection, schedule: Q01DX009 (ip), vehicle: Klucel (hydroxypropylcellulose) (HPC)
[8] = dose: 200.0 mg/kg/injection, schedule: Q01DX009 (ip), vehicle: saline with Tween-80
[9] = dose: 400.0 mg/kg/injection, schedule: Q01DX009 (ip), vehicle: saline with Tween-80
[10] = dose: 100.0 mg/kg/injection, schedule: Q01DX001 (ip), vehicle: saline with Tween-80
[11] = dose: 200.0 mg/kg/injection, schedule: Q01DX001 (ip), vehicle: saline with Tween-80
[12] = dose: 12.5 mg/kg/injection, schedule: Q01DX009 (ip), vehicle: water
[13] = dose: 25.0 mg/kg/injection, schedule: Q01DX009 (ip), vehicle: water
[14] = dose: 50.0 mg/kg/injection, schedule: Q01DX009 (ip), vehicle: water
[15] = dose: 50.0 mg/kg/injection, schedule: Q01DX009 (ip), vehicle: saline with Tween-80
[16] = dose: 100.0 mg/kg/injection, schedule: Q04DX003 (ip), vehicle: saline with Tween-80

C[Si](C)(C)N[Si](C)(C)C
T/C [1]: 100 % of control
T/C [2]: 102 % of control

COc1cc2cc(c1Cl)N1CC(O)C(C)(O)C(=O)NC(C)C(=O)OC(CC1=O)C1(C)OC1C(C)C1CC(O)(NC(=O)O1)C(OC)/C=C\C=C(\C)C2OC (stereo unspecified)
T/C (dose: 7.75 micrograms/kg/injection, schedule: Q01DX009 (ip), vehicle: none): 153 % of control
T/C (dose: 15.5 micrograms/kg/injection, schedule: Q01DX009 (ip), vehicle: none): 159 % of control

O=C(O)c1cccc2c1C(=O)c1cccc3snc-2c13
T/C [3]: 101 % of control
T/C [4]: 99 % of control
T/C [5]: 109 % of control

O=C(Nc1ccc([N+](=O)[O-])cc1)Nc1ccc([N+](=O)[O-])cc1 (tested in a mixture with another compound)
T/C [2]: 103 % of control
T/C [6]: 100 % of control
T/C [7]: 117 % of control
T/C [8]: 100 % of control
T/C (dose: 400.0 mg/kg/injection, schedule: Q01DX009 (ip), vehicle: Klucel (hydroxypropylcellulose) (HPC)): 117 % of control
T/C [9]: 104 % of control

Cc1ccc(NC(=S)N2CCCC2)cc1C
T/C [1]: 100 % of control and 101 % of control
T/C [2]: 109 % of control
T/C [7]: 91 % of control and 98 % of control

CN(O)/C=C1\C(=O)C=Cc2ccccc21
T/C [3]: 90 % of control
T/C [4]: 94 % of control
T/C [5]: 90 % of control

CC1=C(C)[C@]2(C)C(C)[C@]13Cn1c(=O)n(-c4ccccc4)c(=O)n1[C@@]32C (stereo partly specified)
T/C [3]: 95 % of control
T/C [4]: 94 % of control
T/C [5]: 100 % of control

NC(=O)Nc1cc2oc(=O)[nH]c2cc1Cl
T/C (dose: 50.0 mg/kg/injection, schedule: Q01DX005 (ip), vehicle: saline with Tween-80): 94 % of control
T/C (dose: 100.0 mg/kg/injection, schedule: Q01DX005 (ip), vehicle: saline with Tween-80): 95 % of control
T/C (dose: 200.0 mg/kg/injection, schedule: Q01DX005 (ip), vehicle: saline with Tween-80): 90 % of control

COc1ccc2cc1Oc1ccc(cc1)CC1c3c(cc(OC)c(OC)c3Oc3cc4c(cc3OC)CCN(C)C4C2)CCN1C (stereo unspecified)
T/C [10]: 103 % of control
T/C [11]: 92 % of control

CCN1c2ccccc2CC(CCN(C(C)C)C(C)C)(C(N)=O)c2ccccc21 (stereo unspecified)
T/C (dose: 25.0 mg/kg/injection, schedule: Q04DX002 (ip), vehicle: saline with Tween-80): 95 % of control
T/C (dose: 50.0 mg/kg/injection, schedule: Q04DX002 (ip), vehicle: saline with Tween-80): 95 % of control
T/C (dose: 100.0 mg/kg/injection, schedule: Q04DX002 (ip), vehicle: saline with Tween-80): 95 % of control

CCOC(=O)c1cnc2ccccc2c1N=[N+]=[N-]
T/C (dose: 60.0 mg/kg/injection, schedule: Q01DX005 (ip), vehicle: saline with Tween-80): 94 % of control
T/C (dose: 120.0 mg/kg/injection, schedule: Q01DX005 (ip), vehicle: saline with Tween-80): 99 % of control
T/C (dose: 240.0 mg/kg/injection, schedule: Q01DX005 (ip), vehicle: saline with Tween-80): 103 % of control

COC(=O)CC1(C(=O)OC)C2=C(c3ccccc3CC2)N2CCCC21 (stereo unspecified)
T/C (dose: 11.25 mg/kg/injection, schedule: Q01DX009 (ip), vehicle: Klucel (hydroxypropylcellulose) (HPC)): 110 % of control
T/C (dose: 22.5 mg/kg/injection, schedule: Q01DX009 (ip), vehicle: Klucel (hydroxypropylcellulose) (HPC)): 110 % of control
T/C (dose: 45.0 mg/kg/injection, schedule: Q01DX009 (ip), vehicle: Klucel (hydroxypropylcellulose) (HPC)): 102 % of control
T/C (dose: 90.0 mg/kg/injection, schedule: Q01DX009 (ip), vehicle: Klucel (hydroxypropylcellulose) (HPC)): 112 % of control

COc1ccc2c(c1)CCc1c-2n[nH]c1-c1[nH]nc2c1CCc1cc(OC)ccc1-2
T/C (dose: 60.0 mg/kg/injection, schedule: Q01DX005 (ip), vehicle: Klucel (hydroxypropylcellulose) (HPC)): 93 % of control
T/C (dose: 120.0 mg/kg/injection, schedule: Q01DX005 (ip), vehicle: Klucel (hydroxypropylcellulose) (HPC)): 93 % of control
T/C (dose: 240.0 mg/kg/injection, schedule: Q01DX005 (ip), vehicle: Klucel (hydroxypropylcellulose) (HPC)): 94 % of control

CC(=O)ON1C(=O)C2C3C=CC(O3)C2C1=O (stereo unspecified)
T/C (dose: 3.13 mg/kg/injection, schedule: Q01DX009 (ip), vehicle: water): 103 % of control
T/C (dose: 6.25 mg/kg/injection, schedule: Q01DX009 (ip), vehicle: water): 112 % of control
T/C [12]: 100 % of control
T/C [13]: 102 % of control
T/C [14]: 93 % of control

O=C(Nc1ccccc1)ON=C(c1ccccc1)c1ccccc1
T/C [10]: 97 % of control
T/C [11]: 93 % of control
T/C (dose: 400.0 mg/kg/injection, schedule: Q01DX001 (ip), vehicle: saline with Tween-80): 112 % of control

CCC(CC)(COS(C)(=O)=O)COS(C)(=O)=O
T/C [15]: 104 % of control
T/C [6]: 101 % of control
T/C [8]: 90 % of control
T/C [9]: 89 % of control

OC(CC1CCCCN1)c1ccccc1 (stereo unspecified)
T/C (dose: 12.5 mg/kg/injection, schedule: Q01DX005 (ip), vehicle: saline): 98 % of control
T/C (dose: 12.5 mg/kg/injection, schedule: Q01DX009 (ip), vehicle: saline with Tween-80): 107 % of control
T/C (dose: 25.0 mg/kg/injection, schedule: Q01DX005 (ip), vehicle: saline): 105 % of control
T/C (dose: 25.0 mg/kg/injection, schedule: Q01DX009 (ip), vehicle: saline with Tween-80): 101 % of control
T/C (dose: 50.0 mg/kg/injection, schedule: Q01DX005 (ip), vehicle: saline): 115 % of control
T/C [15]: 100 % of control and 102 % of control

FC(F)(F)COP(OCC(F)(F)F)OCC(F)(F)F
T/C [16]: 118 % of control
T/C (dose: 200.0 mg/kg/injection, schedule: Q04DX003 (ip), vehicle: saline with Tween-80): 102 % of control
T/C (dose: 400.0 mg/kg/injection, schedule: Q04DX003 (ip), vehicle: saline with Tween-80): 104 % of control

CCCCOP(=S)(N1CC1)N1CC1
T/C (dose: 6.25 mg/kg/injection, schedule: Q04DX003 (ip), vehicle: saline with Tween-80): 154 % of control
T/C (dose: 12.5 mg/kg/injection, schedule: Q04DX003 (ip), vehicle: saline with Tween-80): 195 % of control
T/C (dose: 25.0 mg/kg/injection, schedule: Q04DX003 (ip), vehicle: saline with Tween-80): 236 % of control
T/C (dose: 44.0 mg/kg/injection, schedule: Q04DX003 (ip), vehicle: saline with Tween-80): 204 % of control
T/C (dose: 50.0 mg/kg/injection, schedule: Q04DX003 (ip), vehicle: saline with Tween-80): 259 % of control
T/C (dose: 66.0 mg/kg/injection, schedule: Q04DX003 (ip), vehicle: saline with Tween-80): 200 % of control
T/C [16]: 179 % of control
T/C (dose: 150.0 mg/kg/injection, schedule: Q04DX003 (ip), vehicle: saline with Tween-80): 100 % of control

O=C1c2c3c(c4c(c2C(=O)c2c5c(c6c(c21)CCC6)CCC5)CCCC4)CCCC3
T/C (dose: 20.0 mg/kg/injection, schedule: Q01DX009 (ip), vehicle: saline with Tween-80): 100 % of control
T/C (dose: 40.0 mg/kg/injection, schedule: Q01DX009 (ip), vehicle: saline with Tween-80): 99 % of control
T/C (dose: 80.0 mg/kg/injection, schedule: Q01DX009 (ip), vehicle: saline with Tween-80): 93 % of control

COC(=O)/C=C/c1c[nH]c2nccnc12
T/C (dose: 12.5 mg/kg/injection, schedule: Q01DX009 (ip), vehicle: Klucel (hydroxypropylcellulose) (HPC)): 98 % of control
T/C (dose: 25.0 mg/kg/injection, schedule: Q01DX009 (ip), vehicle: Klucel (hydroxypropylcellulose) (HPC)): 100 % of control
T/C [1]: 102 % of control
T/C [2]: 100 % of control
T/C [7]: 98 % of control

COC(=O)C1CC23C4=C(CCC41)CCC1CN4CC(C)C(CC(OC(C)=O)C12COC(C)=O)C43O (stereo unspecified)
T/C (dose: 0.78 mg/kg/injection, schedule: Q01DX009 (ip), vehicle: suspension in saline): 108 % of control
T/C (dose: 1.56 mg/kg/injection, schedule: Q01DX009 (ip), vehicle: suspension in saline): 104 % of control
T/C (dose: 3.13 mg/kg/injection, schedule: Q01DX009 (ip), vehicle: suspension in saline): 100 % of control
T/C (dose: 6.25 mg/kg/injection, schedule: Q01DX009 (ip), vehicle: suspension in saline): 104 % of control

CCCCN=[N+]=[N-]
T/C [12]: 91 % of control
T/C [13]: 98 % of control
T/C [14]: 98 % of control
T/C (dose: 100.0 mg/kg/injection, schedule: Q01DX009 (ip), vehicle: water): 100 % of control
T/C (dose: 200.0 mg/kg/injection, schedule: Q01DX009 (ip), vehicle: water): 96 % of control

Reference: PubChem BioAssay AID330 (DTP/NCI, 2004)
